Reference: patent US11827690B2, “ApoC-II mimetic peptides” (THE UNITED STATES OF AMERICA, as represented by the …, priority 2017, dated 2023)
Non-standard residues stand in square brackets, D forms with d. No end group written: not given here. *: point of attachment. Stearoyl = CCCCCCCCCCCCCCCCCC(=O)*; Nle = CCCC[C@H](N)C(=O)O

What was measured:
wild-type mice = assay: serum TG of wild-type mice after Intralipid injection with or without LPL inhibitor Triton WR1339; assay type: in vivo; conditions: co-injection with Intralipid, 6 h time point
Protocol: (§1) In some experiments, each animal received 20% Intralipid (FDA approved, Fresenius Kabi, Uppsala, Sweden) in a single dose either by oral gavage (using special sterile single-use non-toxic animal feeding needles) in a dose 10-20 μL/gram body weight (B.W.) (Tuzcu et al. Drug Chem Toxicol 37: 261-267, 2014; Kusminski et al. Nature Medicine 18: 1539-1549, 2012), or by intraperitoneal injection in a single bolus of 0.1-1.0 mL (Mahadero et al. American J Surgery 164: 45-50, 1992), or by intragastric administration of a dietetic commercially-available liquid oil (food grade vegetable, corn, soy or olive oil) in a single dose 10-20 μL/gram body weight. These oils were a source of TG—when absorbed TG tends to be broken down within 3 h (peak in 30 min) (Kritchevsky Nutritional Biochemistry 6:172-178, 1995). Blood samples (20-30 μL) were obtained from the retro-orbital plexus at time points: −1 h, 0 h, 1 h, 3 h, 6 h and 24 h for measurements of lipids. Mice were returned to metabolic cages after the 6 h time point where the food was put back. Once the study was completed (after 24 hours from the fat administration), mice were euthanized and organs collected.
The ability of apolipoprotein mimetic peptides to normalize hypertriglyceridemia in mice treated with an LPL inhibitor, Tyloxapol, in presence of high TG provided by 20% Intralipid, was assessed.
Mice were fasted overnight (approximately 12 hours) before the study and 6 hours during the study, the next day. The apo mimetic peptides were synthetically produced and free of biological contamination (not available as FDA approved compounds/treatment). Peptides were produced and used in sterile conditions and filtered by 0.2 nm filter before injections in a single dose 1-5 μmol/kg B.W. either S.C. or I.P. or I.V. (in a sterile, pharmaceutical grade PBS solution at a volume ≤200 μL). Next, 10% Tyloxapol (Triton WR-1339, T-0307, Sigma-Aldrich) was injected I.V. in a single dose of 5 μL/gram B.W., as described earlier (Zhang Y. L. et al., J Biol Chem. 279: 19362-19374, 2004; Abe C. et al., J. Nutr. 137: 345-350, 2007). […] Finally, each animal received 20% Intralipid (FDA approved, Fresenius Kabi, Uppsala, Sweden) in a single dose either by oral gavage (using special sterile single-use non-toxic animal feeding needles)—in a dose 10-20 μL/gram B.W. (Tuzcu K. et al., Drug Chem Toxicol., 37: 261-267, 2014, Kusminski C. et al., Nature Medicine. 18: 1539-1549, 2012), or by intraperitoneal injection—in a single bolus of 0.1-1.0 mL (Mahadero G. et al., American J Surgery. 164: 45-50, 1992). Blood samples (20-30 μL) were obtained from the retro-orbital plexus at time points: −1 h, 0 h, 1 h, 3 h, 6 h and 24 h for measurements of lipids. Mice were returned to metabolic cages after the 6 h time point where the food was put back. Once the study was completed (after 24 hours from the Intralipid administration), mice were euthanized and organs collected.

apoC-II knockout mice = assay: plasma lipids of apoC-II knockout mice after peptide injection; assay type: in vivo; conditions: 0.25 μmol/kg of body weight intraperitoneal, FIG. 24
Protocol: (§2) C57Bl/6 mice (wild-type), apoC-II knockout (apoC-II KO) mice, and apoC-III transgenic mice were used for in vivo study. The C57Bl/6 mice (wild-type) were purchased from Taconic Biosciences Inc. The apoC-II KO mice were created as described in Sakurai et al., J Pharmacol Exp Ther 356:341-353, 2016. The apoC-III transgenic mice were generated by overexpressing human apoC-III in C57Bl/6 mice. See Qu et al., J. Lipid Res. 48:1476-1487, 2007.
Mice were fasted overnight (approximately 12 hours) before the study and 6 hours during the study, the next day. The apoC-II mimetic peptides were synthetically produced and free of biological contamination (not available as FDA approved compounds/treatment). […] W.) administered either subcutaneous injection (S.Q. or S.C.), intraperitoneal injection (I.P.) or intravenous injection (I.V.) (in a sterile, pharmaceutical grade PBS solution at a volume ≤200 μL) as described in Sakurai et al., J Pharmacol Exp Ther 356:341-353, 2016.

[1] = tested on: VLDL isolated from human plasma; assay: ApoC-III displacement study in VLDL isolated from human plasma; assay type: binding; conditions: SDS PAGE
Protocol: VLDL or chylomicrons isolated from human plasma were incubated with an apoC-II mimetic peptide for 1 hour at 37° C. and washed 3 times with PBS using spin filter with 100 kDa cutoff membrane. […] ApoC-I, apoC-II, apoC-III, and apoE bands were identified by their corresponding size.

bovine LPL [2] = target: T1, bovine LPL (Bos taurus, UniProt P11151); assay: in vitro LPL assay using hypertriglyceridemia patient sera as substrate; assay type: biochemical; conditions: patient sera TG about 1000 mg/dL to about 1700 mg/dL, FIGS. 15A-D
T1 sequence (P11151 29-478): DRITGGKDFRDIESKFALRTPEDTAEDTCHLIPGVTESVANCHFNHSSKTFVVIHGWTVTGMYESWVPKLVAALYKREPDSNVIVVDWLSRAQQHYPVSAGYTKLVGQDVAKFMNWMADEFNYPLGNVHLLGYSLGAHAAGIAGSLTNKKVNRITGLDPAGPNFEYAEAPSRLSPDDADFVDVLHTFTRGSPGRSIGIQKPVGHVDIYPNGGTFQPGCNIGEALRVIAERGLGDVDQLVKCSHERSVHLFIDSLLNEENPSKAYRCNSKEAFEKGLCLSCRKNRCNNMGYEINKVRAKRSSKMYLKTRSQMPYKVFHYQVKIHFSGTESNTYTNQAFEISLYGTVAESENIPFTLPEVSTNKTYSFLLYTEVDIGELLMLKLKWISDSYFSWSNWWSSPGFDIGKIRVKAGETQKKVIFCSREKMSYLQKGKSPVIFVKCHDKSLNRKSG
Protocol: (§3) Preparation of LPL: frozen stock of 10 μL of 0.5 mg/mL bovine LPL was used and diluted 1:100 (10 μL+990 μL of PBS).
(§4) Preparation of free fatty acid (NEFA) assay: NEFA reagents were purchased from Wako Diagnostics, Wako Life Sciences, Inc. Reagent A was prepared by mixing Coloring Reagent A with Solvent A (225 μL per well). Reagent B was prepared by mixing Coloring Reagent B with Solvent B (75 μL per well). 5 nmoL oleic acid standard was prepared by diluting 20 μL of 1 mM oleic acid stock (WAKO NEFA standard solution) with 180 μL of 0.2% BSA.
(§5) LPL activity assay: 10 μL of Intralipid, human plasma sample, or mouse plasma sample was added in each well using repeater pipette. 10 μL (or 15 μL in the wells with no LPL control) of PBS and 10 μL of 1% BSA was added in each well using repeater pipette. 10 μL of peptides were added to corresponding wells in vertical triplicates (lowest concentration is on a left, highest is on the right). The plate was spun down at 1000 RPM for 10 seconds to mix and to remove the solutions from the wall of each well. The plate was put on ice and 5 μL of LPL was added using repeater pipette. The plate was spun down again at 1000 RPM for 10 seconds. The plate was covered and put back on ice for an incubation of 30 min. The plate was then moved to 37° C. and incubated for 1 hour.
(§6) Free fatty acids (NEFA) assay: 45 μL of 5 nmoL standard and 0 nmoL control (0.2% BSA) were added to corresponding wells. 225 μL of reagent A was added in each well using the reagent tray and 12-channel pipette. The plate was incubated for 10 min before 75 μL of reagent B was added to each well using the reagent tray and 12-channel pipette. The plate was not covered due to the high volume. The absorbance at 550 nm and 660 nm was measured.

bovine LPL [3] = target: T1, bovine LPL; assay: in vitro LPL assay using apoC-II deficient patient sera as substrate; assay type: biochemical; conditions: for TG clearance ability compared with Delta4: FIG. 10; for TG hydrolysis: concentrations from 100 pM to 10 μM, FIG. 12
Protocol: as §3
Preparation of 20% Intralipid: 2000 mg/dL TG Intralipid was used to prepare 3 mg/dL TG Intralipid by diluting 1.5 μL of the stock with 998.5 μL PBS, or by diluting the stock 1:10 first and then mixing 15 μL of the diluted stock with 985 μL PBS. When apoC-II deficient human serum was used as a substrate, a frozen 10 μL aliquot of 1711 mg/dL (TG) was diluted by adding 990 μL PBS (1:100 dilution).
as §4, §5, §6

C57BL/6 mice (wild-type) = assay: post-prandial serum TG in C57BL/6 mice after oral gavage with vegetable oil; assay type: in vivo; conditions: intraperitoneally injected 30 min before gavage, FIG. 20
Protocol: as §2
Mice were fasted overnight (approximately 12 hours) before the study and 6 hours during the study, the next day. The apoC-II mimetic peptides were synthetically produced and free of biological contamination (not available as FDA approved compounds/treatment). Peptides were produced and used in sterile conditions and filtered by 0.2 nm filter before injections in a single dose 1-10 μmol/kg body weight (B. W.) administered either subcutaneous injection (S.Q. or S.C.), intraperitoneal injection (I.P.) or intravenous injection (I.V.) (in a sterile, pharmaceutical grade PBS solution at a volume ≤200 μL) as described in Sakurai et al., J Pharmacol Exp Ther 356:341-353, 2016.
as §1

Tyloxapol [Triton, reference compound]
increase of serum TG level (wild-type mice): more than 1000 fold

DYLKEVFEKLRDLYEKFTAAnLSTYTGIFTDQVLSVLKGEENH2 (DYLKEVFEKLRDLYEKFTAA[Nle]STYTGIFTDQVLSVLKGEE-NH2; N-terminus assumed; SMILES CCCC[C@H](NC(=O)[C@H](C)NC(=O)[C@H](C)NC(=O)[C@@H](NC(=O)[C@H](Cc1ccccc1)NC(=O)[C@H](CCCCN)NC(=O)[C@H](CCC(=O)O)NC(=O)[C@H](Cc1ccc(O)cc1)NC(=O)[C@H](CC(C)C)NC(=O)[C@H](CC(=O)O)NC(=O)[C@H](CCCNC(=N)N)NC(=O)[C@H](CC(C)C)NC(=O)[C@H](CCCCN)NC(=O)[C@H](CCC(=O)O)NC(=O)[C@H](Cc1ccccc1)NC(=O)[C@@H](NC(=O)[C@H](CCC(=O)O)NC(=O)[C@H](CCCCN)NC(=O)[C@H](CC(C)C)NC(=O)[C@H](Cc1ccc(O)cc1)NC(=O)[C@@H](N)CC(=O)O)C(C)C)[C@@H](C)O)C(=O)N[C@@H](CO)C(=O)N[C@H](C(=O)N[C@@H](Cc1ccc(O)cc1)C(=O)N[C@H](C(=O)NCC(=O)N[C@H](C(=O)N[C@@H](Cc1ccccc1)C(=O)N[C@H](C(=O)N[C@@H](CC(=O)O)C(=O)N[C@@H](CCC(N)=O)C(=O)N[C@H](C(=O)N[C@@H](CC(C)C)C(=O)N[C@@H](CO)C(=O)N[C@H](C(=O)N[C@@H](CC(C)C)C(=O)N[C@@H](CCCCN)C(=O)NCC(=O)N[C@@H](CCC(=O)O)C(=O)N[C@@H](CCC(=O)O)C(N)=O)C(C)C)C(C)C)[C@@H](C)O)[C@@H](C)CC)[C@@H](C)O)[C@@H](C)O) [Delta6-NH]
plasma TG (apoC-II knockout mice): significant reduction of plasma TG
apoC-III displacement in VLDL [1]: capable of displacing apoC-III

DYLKEVFEKLRDLYEKKC18TPAnLSTYTGIFTDQVLSVLKGEE (DYLKEVFEKLRDLYEKK(Stearoyl)TPA[Nle]STYTGIFTDQVLSVLKGEE) [Delta6b-P]
plasma TG (apoC-II knockout mice): significant reduction of plasma TG
apoC-III displacement in VLDL [1]: capable of displacing apoC-III

DYLKEVFEKLRDLYEKFTAALSTYTGIFTDQVLSVLKGEE (not fully specified) [Delta6L]
LPL activation (bovine LPL [2]): activated LPL in vitro

DYLKAVFEKLRDLYSKKC18TPAMSTYTGIFTDQVLSVLKGEE (DYLKAVFEKLRDLYSKK(Stearoyl)TPAMSTYTGIFTDQVLSVLKGEE) [Delta4b-3]
TG clearance ability compared with Delta4 (bovine LPL [3]): enhanced the TG clearance ability of the exemplary apoC-II mimetic peptide Delta4
TG hydrolysis (bovine LPL [3]): promoted TG hydrolysis in a dose-dependent manner
serum TG increase after vegetable oil gavage (C57BL/6 mice (wild-type)): the TG increase was significantly reduced

DYLKAVFEKLRDLYSKFTPAMSTYTGIFTDQVLSVLKGEE [Delta4b]
TG clearance ability compared with Delta4 (bovine LPL [3]): enhanced the TG clearance ability of the exemplary apoC-II mimetic peptide Delta4
TG hydrolysis (bovine LPL [3]): promoted TG hydrolysis in a dose-dependent manner
serum TG increase after vegetable oil gavage (C57BL/6 mice (wild-type)): the TG increase was significantly reduced

DYLKEVFEKLRDLYEKFTPALSTYTGIFTDQVLSVLKGEE [Delta6PL]
LPL activation (bovine LPL [2]): activated LPL in vitro

DYLKEVFEKLRDLYEKKC18TAAnLSTYTGIFTDQVLSVLKGEE (DYLKEVFEKLRDLYEKK(Stearoyl)TAA[Nle]STYTGIFTDQVLSVLKGEE) [Delta6b-A]
plasma TG (apoC-II knockout mice): significant reduction of plasma TG
apoC-III displacement in VLDL [1]: capable of displacing apoC-III
